Tests used:
Type in all cases: cell-based, mouse
[1] = tested on: ICOS-stimulated Th17 cells; test: Growth and survival of ICOS-stimulated Th17 cells expanded with inhibitors; settings: in vitro expansion, day 7
Description: Expansion of Th17 cells with Wnt/β-catenin and PI3K inhibitors in vitro: […] splenocytes were activated with irradiated (10Gy) C57BL/6 splenocytes pulsed with […] peptide (1 μM) added at a 5:1 ratio in 24-well plates (1 mL media containing 1.5×10^6 cells/well). […] splenocytes were co-stimulated with soluble ICOS agonist (Clone 398.4A, BioLegend) and polarized toward Th17 phenotype as describe above. For in vitro expansion from day 0 of culture 10 μM Ly294002 (Cayman Chemical) or 10 μM CAL-101 (Selleckchem) and/or 60 μM indomethacin (Sigma-Aldrich) was added. Also dimethylosulfoxide 0.01% (Sigma-Aldrich) was added as a control. Th17 cultures were also supplemented with hrIL-2 (100 IU/mL) and rmIL-23 ([…]; R&D). Medium, including cytokines and inhibitors was refreshed every 2-3 days.

Wnt/β-catenin pathway = Wnt/β-catenin pathway expression in Th17 cells (Western blot, real-time PCR)
Description: Total RNA isolation was performed using the Trizol method (Life Technologies) according to the manufacturer's procedure. RNA quantity and purity was assessed using a NanoDrop ND-1000. 1 μg total RNA was transcribed with Transcriptor First Strand cDNA Synthesis Kit (Roche). qReal-time PCR was performed on LightCycler480 machine following manufacturer's protocols (Roche). Probes utilized include Rorc, IL-17, Cmaf IL-21, Cpt-1a, Tcf-7, Lef-1, Cnnb1. All probes are commercially available (ABI). Relative gene expression was determined by the comparative CT method (45). β-actin was used as housekeeping gene.
Nuclear and cytoplasmic protein were isolated by lysis using Nuclear and Cytoplasmic Extraction Reagent with Protease&Phosphatase Inhibitor Cocktail (ThermoScientific). Protein concentration was quantified using […] (ThermoScientific) according to the manufacturer's instructions. 10 to 30 μg of total protein was separated on a Mini-PROTEAN TGX, Any kD™ gel, followed by transfer onto PVDF membrane (Bio-Rad). The membranes were blocked with 5% BSA in TBS buffer containing 0.5% Tween20. The membranes were then incubated overnight at 4° C. with the primary antibodies to β-catenin (BD Bioscience), p110δ, Tcf7 (Abcam), RORγt (Affymetrix) phospho-Akt, total-Akt, STAT-3, Histone-3, Lef1 (abcam), and GAPDH (Cell Signaling) at the concentration recommended by manufactures. Subsequently, membranes were washed and incubated for 1 h at room temperature with (HRP)-conjugated goat antibodies to mouse or rabbit IgG (Cell Signaling). For detection of protein, chemiluminescence method was performed using Western ECL Blotting Substrate (Bio-Rad) followed by X-ray film-based imaging method (ThermoScientific). Quantification of optical density performed using Fiji analysis software (NIH).

[2] = tested on: ICOS activated Th17 cells; test: Cytokine production of inhibitor-primed Th17 cells after secondary re-stimulation in vitro (ELISA); settings: vs untreated or CAL-101-treated Th17 cells
Source text: FIG. 11: Re-stimulation of ICOS activated Th17 cells in vitro restores their cytokine production after initial inhibition of PI3K/p110δ and Wnt/β-catenin signaling pathways. ELISA analysis of cytokine production 72 hrs after secondary re-stimulation in vitro using splenocytes pulsed with trp-1 peptide (5:1 ratio), PMA/Ionomycin or B16F10 cancer cells of ICOS stimulated Th17 cells expanded with inhibitors as indicated. Data represent mean±SEM of at least three independent experiments.
Cytokine levels were measured using the mouse IL-17A, INF-γ, IL-2, IL-9, IL-10, IL-21, IL-22, CCL-20, GM-CSF ELISA kits (R&D) following the manufacturer's protocol.

## COc1ccc2c(c1)c(CC(=O)O)c(C)n2C(=O)c1ccc(Cl)cc1 [Indo, indomethacin]
[1]
  Th17 cell growth or survival: did not impair
Wnt/β-catenin pathway; antigen specific re-stimulation in vitro
  nuclear β-catenin after re-stimulation: re-expressed β-catenin to the level observed in un-treated ICOS stimulated Th17 cells
Wnt/β-catenin pathway; day 8, before re-stimulation / transfer
  nuclear β-catenin expression: abolish β-catenin translocation to the nucleus
[2]
  IL-2 secretion after peptide re-stimulation: significantly more
